Where two headings read alike, the source gives them in different places. Starred links: 1 amine or outer side, 2 acyl side, 3 side chain; linkers in the order of their positions; H or OH if unused. Non-standard residues stand in square brackets, D forms with d. Residues, ends and D or L forms follow the SMILES beside them. Groups on a side chain read outwards from the residue. *: point of attachment. C20 diacid = O=C(O)CCCCCCCCCCCCCCCCCCC(=O)*; γGlu = O=C(O)[C@H](CCC(=O)[*:2])N[*:1]; NMeI = CC[C@H](C)[C@H](NC)C(=O)O; AEEA = NCCOCCOCC(=O)O
Molecular target: T1, human CRHR2b (Homo sapiens, UniProt Q13324)
T1 construct: expressed in transfected cells; host or cells: Chinese Hamster Ovary (CHO) cells, transient transfection
T1 sequence (Q13324 1-438 isoform Q13324-2): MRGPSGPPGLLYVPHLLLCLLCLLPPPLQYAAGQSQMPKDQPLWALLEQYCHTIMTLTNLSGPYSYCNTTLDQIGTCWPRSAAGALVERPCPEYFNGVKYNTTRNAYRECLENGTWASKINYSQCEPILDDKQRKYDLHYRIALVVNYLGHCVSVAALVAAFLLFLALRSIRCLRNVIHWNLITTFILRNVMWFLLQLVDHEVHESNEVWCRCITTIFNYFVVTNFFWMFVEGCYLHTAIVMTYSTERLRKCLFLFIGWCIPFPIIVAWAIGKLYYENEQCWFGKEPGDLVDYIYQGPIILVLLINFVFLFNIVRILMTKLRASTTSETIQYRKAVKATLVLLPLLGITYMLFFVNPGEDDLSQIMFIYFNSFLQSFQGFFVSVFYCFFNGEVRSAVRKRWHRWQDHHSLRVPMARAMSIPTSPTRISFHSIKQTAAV
Assay: human CRHR2b cell-based cAMP assay
Conditions: cAMP assay, read-out: hCRHR2b Average EC50
Method in brief: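 ED50 values are means ± SEM over several runs, curve-fitted from cAMP in pmol, calibrated against unlabeled-cAMP standards. Detection was HTRF competition, ratio 665/620 nm, after 30 min agonist exposure at 37 °C.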

[1] = Table 26, compounds of Example 9

EC50 [1]	EC50 (CHO cells transfected with human CRHR2b, mean ± SEM of runs)	Molecule
4.5 nM	–	CC[C@H](C)[C@H](NC)C(=O)N[C@H](C(=O)N[C@@H](CC(C)C)C(=O)N[C@@H](CO)C(=O)N[C@@H](CC(C)C)C(=O)N[C@@H](CC(=O)O)C(=O)N[C@H](C(=O)N1CCC[C@H]1C(=O)N[C@H](C(=O)NCC(=O)N[C@@H](CC(C)C)C(=O)N[C@@H](CC(C)C)C(=O)N[C@@H](CCC(N)=O)C(=O)N[C@H](C(=O)N[C@@H](CC(C)C)C(=O)N[C@@H](CC(C)C)C(=O)N[C@@H](CCC(=O)O)C(=O)N[C@@H](CCC(N)=O)C(=O)N[C@@H](CCC(=O)O)C(=O)N[C@@H](CCCCN)C(=O)N[C@@H](CCC(N)=O)C(=O)N[C@@H](CCC(=O)O)C(=O)N[C@@H](CCCCN)C(=O)N[C@@H](CCC(=O)O)C(=O)N[C@@H](CCCCN)C(=O)N[C@@H](CCC(N)=O)C(=O)N[C@@H](CCC(N)=O)C(=O)N[C@@H](C)C(=O)N[C@@H](CCCCNC(=O)CC[C@H](NC(=O)CC[C@H](NC(=O)COCCOCCNC(=O)COCCOCCNC(=O)CC[C@H](NC(=O)CC[C@H](NC(=O)CCCCCCCCCCCCCCCCCCC(=O)O)C(=O)O)C(=O)O)C(=O)O)C(=O)O)C(=O)N[C@H](C(=O)N[C@@H](CC(N)=O)C(=O)N[C@@H](C)C(=O)N[C@@H](CCC(N)=O)C(=O)N[C@H](C(=O)N[C@@H](CC(C)C)C(=O)N[C@@H](C)C(=O)N[C@@H](CCC(N)=O)C(=O)N[C@H](C(N)=O)C(C)C)[C@@H](C)CC)[C@@H](C)O)[C@@H](C)CC)[C@@H](C)CC)C(C)C)C(C)C [Compound 62] (H-[NMeI]VLSLDVPIGLLQILLEQEKQEKEKQQAK([γGlu-γGlu-AEEA-AEEA-γGlu-γGlu-C20 diacid])TNAQILAQV-NH2)
–	0.94 ± 0.05 nM	CC[C@H](C)[C@H](NC)C(=O)N[C@H](C(=O)N[C@H](C(=O)N[C@@H](CO)C(=O)N[C@@H](CC(C)C)C(=O)N[C@@H](CC(=O)O)C(=O)N[C@H](C(=O)N1CCC[C@H]1C(=O)N[C@H](C(=O)NCC(=O)N[C@@H](CC(C)C)C(=O)N[C@@H](CC(C)C)C(=O)N[C@@H](CCC(N)=O)C(=O)N[C@H](C(=O)N[C@@H](CC(C)C)C(=O)N[C@H](C(=O)N[C@@H](CCC(=O)O)C(=O)N[C@@H](CCC(N)=O)C(=O)N[C@@H](CCC(=O)O)C(=O)N[C@@H](CCCCN)C(=O)N[C@@H](CCC(N)=O)C(=O)N[C@@H](CCC(=O)O)C(=O)N[C@@H](CCCCN)C(=O)N[C@@H](CCC(=O)O)C(=O)N[C@@H](CCCCN)C(=O)N[C@@H](CCC(N)=O)C(=O)N[C@@H](CCC(N)=O)C(=O)N[C@@H](C)C(=O)N[C@@H](CCCCNC(=O)COCCOCCNC(=O)COCCOCCNC(=O)CC[C@H](NC(=O)CC[C@H](NC(=O)CCCCCCCCCCCCCCCCCCC(=O)O)C(=O)O)C(=O)O)C(=O)N[C@H](C(=O)N[C@@H](CC(N)=O)C(=O)N[C@@H](C)C(=O)N[C@@H](CCC(=O)O)C(=O)N[C@H](C(=O)N[C@@H](CC(C)C)C(=O)N[C@@H](C)C(=O)N[C@@H](CCC(N)=O)C(=O)N[C@H](C(N)=O)C(C)C)[C@@H](C)CC)[C@@H](C)O)[C@@H](C)CC)[C@@H](C)CC)[C@@H](C)CC)C(C)C)[C@@H](C)O)C(C)C [Example 7] (H-[NMeI]VTSLDVPIGLLQILIEQEKQEKEKQQAK([AEEA-AEEA-γGlu-γGlu-C20 diacid])TNAEILAQV-NH2)
1.17 nM	–	IVLSLDVPIGLLQILLEQEKQEKEKQQAK*ENAQILAQV-NH2 [Compound 56, K* at position 29 bonded with ([2-(2-Amino-ethoxy)-ethoxy]-acetyl)2-γE-CO—(CH2)16—COOH; C-terminal primary amide]

Source: patent US10894817B2, “Fatty acid modified urocortin-2 analogs for the treatment of diabetes and chronic kidney disease” (priority 2016, dated 2021)
